Measurements: PubChem BioAssay (NCI)
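Where inhibition never reached the appropriate level, the endpoint shown equals the highest concentration tested. Otherwise, values were interpolated linearly from a five-concentration, 48-hour dose response in 96-well plates. Definition used: TGI = concentration required for complete inhibition of growth.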

Legend:
Assay in all cases: NCI-60 cell line screen, 48 h
PC-3 prostate = test system: PC-3 prostate
HCT-116 colon = test system: HCT-116 colon
MCF7 breast = test system: MCF7 breast
SK-MEL-5 melanoma = test system: SK-MEL-5 melanoma
ACHN renal = test system: ACHN renal
COLO 205 colon = test system: COLO 205 colon
SW-620 colon = test system: SW-620 colon
DU-145 prostate = test system: DU-145 prostate
T-47D breast = test system: T-47D breast
RPMI-8226 leukemia = test system: RPMI-8226 leukemia
MDA-MB-231 breast = test system: MDA-MB-231 breast
HCT-15 colon = test system: HCT-15 colon
MDA-MB-435 = test system: MDA-MB-435
K-562 leukemia = test system: K-562 leukemia
EKVX NSCLC = test system: EKVX NSCLC
SK-MEL-28 melanoma = test system: SK-MEL-28 melanoma
A549 NSCLC = test system: A549 NSCLC
UACC-257 melanoma = test system: UACC-257 melanoma
SF-295 CNS = test system: SF-295 CNS
MALME-3M melanoma = test system: MALME-3M melanoma

SMILES | TGI (PC-3 prostate) [µM] | TGI (HCT-116 colon) [µM] | TGI (MCF7 breast) [µM] | TGI (SK-MEL-5 melanoma) [µM] | TGI (ACHN renal) [µM] | TGI (COLO 205 colon) [µM] | TGI (SW-620 colon) [µM] | TGI (DU-145 prostate) [µM] | TGI (T-47D breast) [µM] | TGI (RPMI-8226 leukemia) [µM] | TGI (MDA-MB-231 breast) [µM] | TGI (HCT-15 colon) [µM] | TGI (MDA-MB-435) [µM] | TGI (K-562 leukemia) [µM] | TGI (EKVX NSCLC) [µM] | TGI (SK-MEL-28 melanoma) [µM] | TGI (A549 NSCLC) [µM] | TGI (UACC-257 melanoma) [µM] | TGI (SF-295 CNS) [µM] | TGI (MALME-3M melanoma) [µM]
COC(=NC(C)C)NC(C)C | > 100 | > 100 | > 100 | > 100 | > 100 | > 100 | > 100 | > 100 | > 100 | > 100 | > 100 | > 100 | > 100 | > 100 | > 100 | > 100 | > 100 | – | – | –
OCC(O)COCn1cc(Cn2ncc3c(SCc4ccccc4)ncnc32)nn1 (stereo unspecified) | > 100 | > 100 | > 100 | > 100 | > 100 | > 100 | > 100 | > 100 | > 100 | > 100 | > 100 | > 100 | > 100 | > 100 | > 100 | > 100 | > 100 | > 100 | > 100 | –
CSC(=S)CC(O)[C@@H]1CC2c3ccccc3C1c1ccccc12 (stereo partly specified) | 48.6 | 20.9 | 62.1 | 30.5 | 29.5 | 36.4 | > 100 | 30.8 | 37.7 | 20.7 | 54.3 | 25.6 | 26 | 30.4 | – | 48.5 | 34.4 | – | 34.4 | 39.1
N=C(N)SCc1ccc2c(c1)S(=O)(=O)c1ccccc1O2 | 37.4 | 63.1 | 34.7 | – | 31.9 | > 100 | 53 | > 100 | 73.8 | > 100 | > 100 | 87.9 | 34.3 | > 100 | 35.2 | 33.1 | 39.8 | 35.2 | 56.8 | –
C=C1CC[C@](C)(O)[C@@]2(C)CC[C@H]3C(=C(C)C)C(=O)C[C@]3(C)C[C@H]12 | > 50 | > 50 | > 50 | > 50 | > 50 | > 50 | > 50 | > 50 | > 50 | > 50 | > 50 | 46.2 | > 50 | 16.8 | > 50 | > 50 | > 50 | > 50 | > 50 | –
COC(=O)C(Cc1ccccc1)NC(=O)CSc1nnc(COc2ccc(Cl)cc2)n1-c1ccccc1 (stereo unspecified) | 59 | 54.6 | 58.5 | 31.4 | 30.4 | 41.8 | > 100 | > 100 | > 100 | 73.5 | 41.8 | > 100 | 45.6 | > 100 | – | 78.6 | > 100 | 26.2 | – | 42.7
O=C(CCC(=O)c1ccsc1)c1ccsc1 | > 100 | > 100 | > 100 | > 100 | > 100 | > 100 | > 100 | > 100 | > 100 | > 100 | > 100 | > 100 | > 100 | – | – | > 100 | > 100 | > 100 | > 100 | > 100
COCN1C(=O)[C@@H]2CCCN2C(=O)c2cc(OC)c(Cc3ccccc3)cc21 | > 100 | > 100 | > 100 | – | > 100 | – | > 100 | > 100 | > 100 | – | > 100 | > 100 | > 100 | – | > 100 | > 100 | > 100 | > 100 | > 100 | > 100
CC1(C)CNC(=O)C2(CCCO2)CNC(C)(C)CNC(=O)C2(CCCO2)CN1 (stereo unspecified) | > 10 | > 10 | > 10 | > 10 | > 10 | > 10 | > 10 | > 10 | > 10 | > 10 | > 10 | > 10 | > 10 | > 10 | – | > 10 | > 10 | > 10 | > 10 | > 10
Clc1ccc(/C=C/c2nc(-c3ccccc3)cn3c2nc2ccccc23)cc1Cl | > 100 | > 100 | > 100 | > 100 | > 100 | > 100 | > 100 | > 100 | > 100 | > 100 | > 100 | > 100 | > 100 | > 100 | > 100 | > 100 | > 100 | > 100 | – | –
CN1CCN(Cn2nc(COc3ccccc3Cl)n(/N=C/c3ccc(-c4ccc(Cl)cc4Cl)o3)c2=S)CC1 | 53.6 | 34.7 | 53.3 | 71.8 | – | – | 34.6 | 38.3 | 55 | 83.8 | 69.5 | 74.3 | 64.5 | 89.9 | > 100 | > 100 | – | > 100 | 87.3 | –
